Measured values published in patent publication US10919885B2, “Compounds and uses thereof” (Yumanity Therapeutics, Inc., priority 2018, dated 2021).
pIC50: −log10 of the molar value.

What follows are compounds tested against human SCD1 (Homo sapiens (Human), UniProt O00767) (assay: Yeast growth assay, strain expressing human SCD1 as the sole desaturase (reduced growth as surrogate for SCD inhibition)). Settings: yeast with OLE1 deleted expressing human SCD1 from a plasmid; growth read as OD600 after 40 h at 30° C.; top drug concentration 33.3 μM.
Chain of human SCD1 (O00767 whole entry): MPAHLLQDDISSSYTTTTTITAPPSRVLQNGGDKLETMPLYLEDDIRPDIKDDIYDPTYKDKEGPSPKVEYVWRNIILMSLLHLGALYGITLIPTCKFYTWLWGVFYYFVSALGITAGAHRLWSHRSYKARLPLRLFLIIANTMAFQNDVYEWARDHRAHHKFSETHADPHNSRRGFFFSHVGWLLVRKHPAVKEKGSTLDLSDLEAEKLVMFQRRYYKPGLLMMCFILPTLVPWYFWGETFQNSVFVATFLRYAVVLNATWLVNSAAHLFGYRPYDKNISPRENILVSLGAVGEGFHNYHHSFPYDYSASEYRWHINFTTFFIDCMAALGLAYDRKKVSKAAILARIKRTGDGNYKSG
Format: cell-based
How it was run: (§1)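 Yeast lacking OLE1 depend on plasmid-borne human SCD1 or SCD5 and are tested in SD-Ura medium without oleic/palmitoleic acid or Tween.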

| Compound | pIC50 |
| --- | --- |
| Cc1cc(C2CCCN2C(=O)c2cc(-c3ccc4c(c3)OCO4)on2)no1 (stereo not shown) [Compound 442] | < 4.35 |
| CCOc1ccc(-c2cc(C(=O)N3CCC[C@H]3c3ccccc3)no2)cc1F [Compound 443] | < 4.35 |
| COc1ccc(-c2cc(NC(=O)[C@@H]3CCCN3c3ccccc3)on2)cc1 [Compound 445] | < 4.35 |
| O=C(c1cc(-c2ccc3c(c2)OCO3)on1)N1CCCC1c1ncccc1Br (stereo not shown) [Compound 447] | < 4.35 |
| N#Cc1cccnc1C1CCCN1C(=O)c1cc(-c2ccc3c(c2)OCO3)on1 (stereo not shown) [Compound 448] | < 4.35 |
| O=C(c1noc2cc(Br)ccc12)N1CCC[C@H]1c1ccccc1 [Compound 449] | < 4.35 |
| O=C(c1cc(-c2ccc3nccnc3c2)on1)N1CCC[C@H]1c1ccccc1 [Compound 450] | < 4.35 |
| O=C(c1cc(-c2ccc(=O)[nH]c2)on1)N1CCC[C@H]1c1ccccc1 [Compound 451] | 4.43 |
| O=C(Nc1ccccc1)C1CCCN1C(=O)c1cc(-c2ccc3c(c2)OCO3)on1 (stereo not shown) [Compound 455] | < 4.35 |
| N#Cc1ccc2c(C(=O)N3CCC[C@H]3c3ccccc3)noc2c1 [Compound 456] | < 4.35 |
| O=C(c1cc(-c2ccc3c(c2)OCO3)on1)N1CCCC1c1ncccc1F (stereo not shown) [Compound 457] | < 4.35 |
| Cc1nn(C)c2cc(-c3cc(C(=O)N4CCCC4c4ccnnc4)no3)ccc12 (stereo not shown) [Compound 458] | < 4.35 |
| Cc1nn(C)c2cc(-c3cc(C(=O)N4CCCC4c4cccnn4)no3)ccc12 (stereo not shown) [Compound 462] | < 4.35 |
| Cc1nn(C)c2cc(-c3conc3CN3C(=O)OCC3c3ccccc3)ccc12 (stereo not shown) [Compound 464] | < 4.35 |

Each compound was assayed against human SCD5 (Homo sapiens (Human), UniProt Q86SK9) (assay: Yeast growth assay, strain expressing human SCD5 as the sole desaturase (reduced growth as surrogate for SCD inhibition)). Settings: yeast with OLE1 deleted expressing human SCD5 from a plasmid; growth read as OD600 after 40 h at 30° C.; top drug concentration 33.3 μM.
Chain of human SCD5 (Q86SK9 whole entry): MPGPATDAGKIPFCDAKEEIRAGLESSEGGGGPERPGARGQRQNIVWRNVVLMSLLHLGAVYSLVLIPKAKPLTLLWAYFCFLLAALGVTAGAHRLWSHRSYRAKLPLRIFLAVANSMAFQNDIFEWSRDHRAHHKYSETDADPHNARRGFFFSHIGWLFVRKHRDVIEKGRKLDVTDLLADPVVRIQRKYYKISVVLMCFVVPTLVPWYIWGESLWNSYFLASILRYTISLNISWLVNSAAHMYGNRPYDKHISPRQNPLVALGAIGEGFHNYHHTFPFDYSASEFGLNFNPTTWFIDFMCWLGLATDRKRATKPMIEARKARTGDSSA
Format: cell-based
How it was run: as §1

| Compound | pIC50 |
| --- | --- |
| Cc1cc(C2CCCN2C(=O)c2cc(-c3ccc4c(c3)OCO4)on2)no1 (stereo not shown) [Compound 442] | < 4.35 |
| CCOc1ccc(-c2cc(C(=O)N3CCC[C@H]3c3ccccc3)no2)cc1F [Compound 443] | < 4.35 |
| COc1ccc(-c2cc(NC(=O)[C@@H]3CCCN3c3ccccc3)on2)cc1 [Compound 445] | < 4.35 |
| O=C(c1cc(-c2ccc3c(c2)OCO3)on1)N1CCCC1c1ncccc1Br (stereo not shown) [Compound 447] | < 4.35 |
| N#Cc1cccnc1C1CCCN1C(=O)c1cc(-c2ccc3c(c2)OCO3)on1 (stereo not shown) [Compound 448] | < 4.35 |
| O=C(c1noc2cc(Br)ccc12)N1CCC[C@H]1c1ccccc1 [Compound 449] | 4.38 |
| O=C(c1cc(-c2ccc3nccnc3c2)on1)N1CCC[C@H]1c1ccccc1 [Compound 450] | < 4.35 |
| O=C(c1cc(-c2ccc(=O)[nH]c2)on1)N1CCC[C@H]1c1ccccc1 [Compound 451] | < 4.35 |
| O=C(Nc1ccccc1)C1CCCN1C(=O)c1cc(-c2ccc3c(c2)OCO3)on1 (stereo not shown) [Compound 455] | < 4.35 |
| N#Cc1ccc2c(C(=O)N3CCC[C@H]3c3ccccc3)noc2c1 [Compound 456] | < 4.35 |
| O=C(c1cc(-c2ccc3c(c2)OCO3)on1)N1CCCC1c1ncccc1F (stereo not shown) [Compound 457] | < 4.35 |
| Cc1nn(C)c2cc(-c3cc(C(=O)N4CCCC4c4ccnnc4)no3)ccc12 (stereo not shown) [Compound 458] | < 4.35 |
| Cc1nn(C)c2cc(-c3cc(C(=O)N4CCCC4c4cccnn4)no3)ccc12 (stereo not shown) [Compound 462] | < 4.35 |
| Cc1nn(C)c2cc(-c3conc3CN3C(=O)OCC3c3ccccc3)ccc12 (stereo not shown) [Compound 464] | < 4.35 |
